One data set has as its target T1, sphingosine kinase (Mus musculus, UniProt Q8CI15).
T1 construct: host or cells: F9-12 cells
Kind of data set: Activation of sphingosine kinase (C17-sphingosine-1-phosphate production, HPLC). The format is cell-based. The note with it: F9-12 cells, 24 hours, 50 μM compound, PMA 300 nM. The protocol: The following test for activation of sphingosine kinase was performed to determine whether the effects of the above compounds upon intracellular calcium signal transfer as described in Example 1 were caused by activation of sphingosine kinase.
F9-12 cells were treated with 300 nM of PMA ([…]) as positive control, and 50 μM of each of K6PC4 and K6PC-5 for 24 hours and collected. Then, activity of sphingosine kinase was measured as production of C17-sphingosine-1-phosphate based on 50 μg of protein. Sphingosine-1-phospate was extracted from the collected cells by the steps of: (1) treating with trypsin-EDTA, (2) centrifugal separation at 1,500 rpm for 10 minutes, and (3) washing with PBS, followed by freeze-drying. Then, PBS was added to the freeze-dried product and the resultant product was treated with ultrasonic waves to destroy cells. Sphingosine-1-phosphate was determined by HPLC, and OPA (o-phthalaldehyde) reagent and boric acid buffer were added to the extracted sample and the mixture was reacted at room temperature for 20 minutes. For the HPLC quantitive analysis, fluorescence intensity was measured at each wavelength of 340 nm and 455 nm with a solution in 90% acetonitrile, and a ratio to the internal standard was calculated.

The next data set deals with human body. The note with it: in vivo.
The next data set concerns keratinocytes. Kind of data set: Differentiation of keratinocytes (western blotting of involucrin and keratin-1). To be noted: 10 μM, 48 hours, FIG. 2. The format is cell-based. As for the experimental part: In order to evaluate the effect of the above compound according to the present invention upon differentiation of keratinocytes, each of K6PC4, K6PC-5, K6PC-7 and K6PC-9 was dissolved in DMSO at a concentration of 10 μM and used as sample. Evaluation was performed by using the western blotting method. As differentiation markers, involucrin and keratine-1, which were differentiation markers of keratinocytes, were measured. Next, 48 hours after the treatment of samples, the culture solution was discarded and the cells were washed with PBS and collected by filtering. The collected cells were washed again and subjected to centrifugal separation to remove supernatant. The cells were dissolved in a solvent and subjected to centrifugal separation at 12,000 rpm for 10 minutes, thereby removing cell membranes, etc. Protein concentration was determined by the Bradford method. Proteins were separated by mini gel type SDS-PAGE (polyacrylamide gel electrohoresis) and transferred to a PVDF (polyvinylidene fluoride) membrane at 100V for 1 hour, so that gel-like proteins were subjected to blotting with a transfer membrane. Then, the membrane was colored with Ponceau S solution to determine whether transfer was accomplished or not. The membrane was blocked by using TTBS (TBS+0.1% Tween 20) solution containing 5% non-fat dried milk. In order to check the amount of involucrin as differentiation marker of keratinocytes, primary antibody involucrin (Neomarkers Co.) was diluted at a ratio of about 1/200 to 1.400, and keratin-1 (Covance Co.) was diluted at a ratio of about 1/1000. Reactions were performed overnight at 4° C. As secondary antibody, anti-mouse IgG and anti-rabbit IgG combined with horseradish peroxidase (HRP) was diluted at a ratio of 1:2000. Then, the secondary antibody was bonded to the primary antibody by making them react at room temperature for 1 hour. The membrane was washed with TTBS three times, reacted with an ECL substrate (Amersham Co.) for 1-3 minutes, and exposed to X-ray films.
A general note: A western blot detects proteins with antibodies after separation by electrophoresis.

The test system of the next data set is hairless mouse. Type of data set: in vivo. The note with it: 1.0% in PEG:EtOH=7:3 combined with 0.05% chlobetason-17-propionate, back of hairless mouse, H & E staining. An excerpt:
To evaluate effect of the sphingosine kinase activator upon inhibition of steroid side effects, a steroid was applied to a hairless mouse. Typically, side effects caused by long-term or excessive dose of steroids include skin atrophy expressed by thinning of skin and weakening of skin functions, and a rebound phenomenon including reoccurrence of conditions caused by stopping use of steroids. It is reported that the main cause for such side effects is inhibition of fibroblast activity and a decrease in collagen production (S. Hammer et al., J. Cell. Biochem, 91, 840-851, 2004), Therefore, it is expected that the compound according to the present invention enhances collagen synthesis and differentiation of keratinocytes, and thus inhibits such side effects caused by steroids. To perform a test, a steroid, i.e. 0.05% chlobetason-17-propionate, and […]-5 according to the present invention (1.0% in PEG:EtOH=7:3) were applied to a hairless mouse and changes in the skin were observed. The treating agents were applied to the back of a hairless mouse 9 times per day and the tissue was collected. Then, the epidermis and dermis were observed by carrying out the H & E staining method (hematoxylin and eosin staining) known to one skilled in the art.

T1 sequence (Q8CI15 1-381 isoform Q8CI15-3): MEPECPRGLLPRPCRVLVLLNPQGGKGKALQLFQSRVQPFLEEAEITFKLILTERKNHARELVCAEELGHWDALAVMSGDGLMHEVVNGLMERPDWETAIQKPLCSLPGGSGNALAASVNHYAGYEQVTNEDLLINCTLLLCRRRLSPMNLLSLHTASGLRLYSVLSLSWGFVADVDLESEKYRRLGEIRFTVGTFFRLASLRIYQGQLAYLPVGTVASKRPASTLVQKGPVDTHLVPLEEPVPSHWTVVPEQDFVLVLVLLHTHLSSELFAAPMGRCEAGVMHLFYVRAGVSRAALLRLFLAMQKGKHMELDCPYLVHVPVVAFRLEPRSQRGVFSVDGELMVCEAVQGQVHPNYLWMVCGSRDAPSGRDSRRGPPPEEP
Description for human body: Those tests were performed based on “Toxicity Test Standards for Pharmaceutical Products” disclosed by the Korea Food & Drug Administration.

Regarding `CCCCCCCC(=O)C(CCCCCC)C(=O)NC(CO)CO` (centres unmarked) [K6PC-5, N-(1,3-dihydroxyisopropyl)-2-hexyl-3-oxo-decanamide], the “C17-SIP Production” value on sphingosine kinase (non-treated control 51.72) turned out to be 75.59 pmol/min/mg. At sphingosine kinase (versus non-treated control), the “increase in production of sphingosine-1-phosphate” value is on record as “about 46%”. Besides, the “Human body application test result” value in the data set on human body is on record as “No irritation”. In addition, the “expression of differentiation markers (involucrin, keratin-1)” value in the data set with keratinocytes is listed as “expressed the differentiation markers”. Besides, the “inhibition of steroid side effects (skin atrophy)” value with hairless mouse is on record as “significant inhibition of side effects caused by steroids”.

The values are drawn from patent US20060094790A1, “Use of sphingosine kinase activator as skin disease treating agent and method for treating skin diseases using the same” (priority 2004, published 2006).
